Experimental data taken from ChEMBL document CHEMBL1909046, “DrugMatrix in vitro pharmacology data”.

Key:
[1] = molecular target: Mitogen-activated protein kinase 1 (Homo sapiens, UniProt P28482); assay: DRUGMATRIX: Protein Serine/Threonine Kinase, ERK2 enzyme inhibition (substrate: Myelin Basic Protein); set-up: species or system Escherichia coli; conditions: Not Active = under 50% inhibition at 10 µM
Nitric oxide synthase 1 = Nitric oxide synthase 1 (Rattus norvegicus, UniProt P29476); type: tissue-based, Cerebellum; also: in other assays of this panel Not Active means under 50% inhibition at 10 µM
Melanocortin receptor 5 = Melanocortin receptor 5 (Homo sapiens, UniProt P33032); type: cell membranes, HEK293, Membrane; conditions: hek293; also: in other assays of this panel Not Active means under 50% inhibition at 10 µM
[2] = molecular target: T1, C-X-C chemokine receptor type 2 (Homo sapiens, UniProt P25025); type: cell membranes, Membrane; conditions: cho-k1; also: in other assays of this panel Not Active means under 50% inhibition at 10 µM
T1 sequence (P25025 whole entry): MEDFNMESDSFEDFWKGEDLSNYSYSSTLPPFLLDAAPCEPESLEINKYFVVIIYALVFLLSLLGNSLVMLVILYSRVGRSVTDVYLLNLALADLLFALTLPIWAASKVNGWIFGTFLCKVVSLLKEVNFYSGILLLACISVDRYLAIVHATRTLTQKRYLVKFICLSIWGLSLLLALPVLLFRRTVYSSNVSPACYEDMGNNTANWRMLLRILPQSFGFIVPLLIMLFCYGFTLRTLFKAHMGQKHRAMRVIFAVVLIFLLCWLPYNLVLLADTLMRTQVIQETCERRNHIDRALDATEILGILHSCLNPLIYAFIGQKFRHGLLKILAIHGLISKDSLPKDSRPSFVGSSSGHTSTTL

[3] = molecular target: Mitogen-activated protein kinase 3 (Homo sapiens, UniProt P27361); assay: DRUGMATRIX: Protein Serine/Threonine Kinase, ERK1 enzyme inhibition (substrate: Myelin Basic Protein); set-up: species or system Escherichia coli; conditions: Not Active = under 50% inhibition at 10 µM
[4] = DRUGMATRIX: Glutamate, AMPA radioligand binding (ligand: [3H] AMPA); type: cell membranes, Rattus norvegicus, Wistar, Cerebral cortex, Membrane; conditions: Not Active = under 50% inhibition at 10 µM

Chain of Mitogen-activated protein kinase 1 (P28482 whole entry): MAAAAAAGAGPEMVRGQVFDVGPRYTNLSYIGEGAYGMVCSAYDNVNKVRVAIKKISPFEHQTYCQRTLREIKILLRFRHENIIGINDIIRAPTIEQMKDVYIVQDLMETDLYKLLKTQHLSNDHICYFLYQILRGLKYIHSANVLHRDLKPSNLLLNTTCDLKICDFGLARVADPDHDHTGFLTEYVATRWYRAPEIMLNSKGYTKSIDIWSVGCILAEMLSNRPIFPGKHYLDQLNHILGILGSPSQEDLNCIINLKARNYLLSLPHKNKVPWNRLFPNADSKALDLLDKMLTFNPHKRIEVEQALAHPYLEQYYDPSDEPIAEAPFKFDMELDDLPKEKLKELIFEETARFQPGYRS
Chain of Mitogen-activated protein kinase 3 (P27361 whole entry): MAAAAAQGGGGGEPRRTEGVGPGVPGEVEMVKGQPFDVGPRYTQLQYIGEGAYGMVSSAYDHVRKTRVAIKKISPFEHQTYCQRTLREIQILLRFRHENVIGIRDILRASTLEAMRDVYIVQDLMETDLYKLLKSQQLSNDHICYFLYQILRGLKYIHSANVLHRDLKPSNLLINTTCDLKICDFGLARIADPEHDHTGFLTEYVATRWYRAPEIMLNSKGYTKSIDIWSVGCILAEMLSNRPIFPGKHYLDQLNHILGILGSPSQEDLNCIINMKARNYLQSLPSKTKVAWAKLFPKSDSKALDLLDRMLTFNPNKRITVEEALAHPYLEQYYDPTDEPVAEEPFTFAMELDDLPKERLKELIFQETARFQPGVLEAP
Chain of Nitric oxide synthase 1 (P29476 whole entry): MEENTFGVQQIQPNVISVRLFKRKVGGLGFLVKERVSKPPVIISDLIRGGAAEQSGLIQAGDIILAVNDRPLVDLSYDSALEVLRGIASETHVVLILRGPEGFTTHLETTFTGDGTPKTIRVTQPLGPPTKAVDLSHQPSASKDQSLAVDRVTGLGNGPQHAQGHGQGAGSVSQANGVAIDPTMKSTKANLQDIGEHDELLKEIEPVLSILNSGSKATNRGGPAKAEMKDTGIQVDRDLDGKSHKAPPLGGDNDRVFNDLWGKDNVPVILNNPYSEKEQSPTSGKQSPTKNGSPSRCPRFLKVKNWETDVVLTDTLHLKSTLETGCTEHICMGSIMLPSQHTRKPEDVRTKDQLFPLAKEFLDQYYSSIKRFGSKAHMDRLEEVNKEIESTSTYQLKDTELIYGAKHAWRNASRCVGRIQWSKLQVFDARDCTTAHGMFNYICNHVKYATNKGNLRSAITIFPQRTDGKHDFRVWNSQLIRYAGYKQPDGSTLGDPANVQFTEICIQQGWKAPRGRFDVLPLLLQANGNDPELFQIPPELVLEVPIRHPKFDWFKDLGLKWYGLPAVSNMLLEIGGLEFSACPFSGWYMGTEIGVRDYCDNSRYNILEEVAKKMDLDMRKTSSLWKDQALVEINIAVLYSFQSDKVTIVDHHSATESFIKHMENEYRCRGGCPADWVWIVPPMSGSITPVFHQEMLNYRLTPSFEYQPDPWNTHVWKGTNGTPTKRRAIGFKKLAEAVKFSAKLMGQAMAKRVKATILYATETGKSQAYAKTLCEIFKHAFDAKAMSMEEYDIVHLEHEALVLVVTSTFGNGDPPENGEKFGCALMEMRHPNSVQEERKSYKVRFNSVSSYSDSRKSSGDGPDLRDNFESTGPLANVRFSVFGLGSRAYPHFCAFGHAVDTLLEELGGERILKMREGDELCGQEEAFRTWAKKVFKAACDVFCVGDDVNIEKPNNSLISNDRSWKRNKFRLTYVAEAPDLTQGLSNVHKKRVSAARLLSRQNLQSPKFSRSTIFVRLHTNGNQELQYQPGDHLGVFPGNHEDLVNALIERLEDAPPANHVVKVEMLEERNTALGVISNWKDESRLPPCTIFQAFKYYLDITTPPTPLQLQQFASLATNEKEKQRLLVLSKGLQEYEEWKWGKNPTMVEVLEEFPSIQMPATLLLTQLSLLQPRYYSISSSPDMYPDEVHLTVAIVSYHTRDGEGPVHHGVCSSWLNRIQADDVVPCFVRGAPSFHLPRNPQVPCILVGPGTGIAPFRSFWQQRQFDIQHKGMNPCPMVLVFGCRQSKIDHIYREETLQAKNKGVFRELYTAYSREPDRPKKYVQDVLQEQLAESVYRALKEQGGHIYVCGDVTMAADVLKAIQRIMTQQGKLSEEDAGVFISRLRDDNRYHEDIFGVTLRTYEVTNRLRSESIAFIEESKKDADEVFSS
Chain of Melanocortin receptor 5 (P33032 whole entry): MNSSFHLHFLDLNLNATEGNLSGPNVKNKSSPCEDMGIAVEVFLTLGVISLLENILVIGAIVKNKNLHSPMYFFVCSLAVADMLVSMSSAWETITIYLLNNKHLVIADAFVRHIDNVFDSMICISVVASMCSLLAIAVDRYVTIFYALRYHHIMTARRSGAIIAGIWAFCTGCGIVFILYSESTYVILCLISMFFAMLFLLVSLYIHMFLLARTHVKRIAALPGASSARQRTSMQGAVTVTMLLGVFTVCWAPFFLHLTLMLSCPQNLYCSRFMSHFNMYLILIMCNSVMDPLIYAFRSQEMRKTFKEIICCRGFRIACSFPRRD

O=C(c1ccccc1C(F)(F)F)N1CCC(Cc2ccccc2)CC1
Not Active: IC50 [1] | IC50 (Nitric oxide synthase 1) | IC50 (Melanocortin receptor 5) | IC50 [2] | IC50 [3] | IC50 [4] | Ki [4]

O=C/C=C/c1ccccc1
Not Active: IC50 [1] | IC50 (Nitric oxide synthase 1) | IC50 (Melanocortin receptor 5) | IC50 [2] | IC50 [3] | IC50 [4] | Ki [4]

Nc1ccc2c3c(cccc13)C(=O)NC2=O
Not Active: IC50 [1] | IC50 (Nitric oxide synthase 1) | IC50 (Melanocortin receptor 5) | IC50 [2] | IC50 [3] | IC50 [4] | Ki [4]

COc1ccc(C(=O)N2CCCC2=O)cc1
Not Active: IC50 [1] | IC50 (Nitric oxide synthase 1) | IC50 (Melanocortin receptor 5) | IC50 [2] | IC50 [3] | IC50 [4] | Ki [4]

O=c1cnn([C@@H]2O[C@H](CO)[C@@H](O)[C@H]2O)c(=O)[nH]1 [6-AZAURIDINE]
Not Active: IC50 [1] | IC50 (Nitric oxide synthase 1) | IC50 (Melanocortin receptor 5) | IC50 [2] | IC50 [3] | IC50 [4] | Ki [4]

CC[C@H](C)[C@H]1O[C@]2(C=C[C@@H]1C)C[C@@H]1C[C@@H](C/C=C(\C)[C@@H](O[C@H]3C[C@H](OC)[C@@H](O[C@H]4C[C@H](OC)[C@@H](O)[C@H](C)O4)[C@H](C)O3)[C@@H](C)/C=C/C=C3\CO[C@@H]4[C@H](O)C(C)=C[C@@H](C(=O)O1)[C@]34O)O2.CO[C@H]1C[C@H](O[C@H]2[C@H](C)O[C@@H](O[C@@H]3/C(C)=C/C[C@@H]4C[C@@H](C[C@]5(C=C[C@H](C)[C@@H](C(C)C)O5)O4)OC(=O)[C@@H]4C=C(C)[C@@H](O)[C@H]5OC/C(=C\C=C\[C@@H]3C)[C@]54O)C[C@@H]2OC)O[C@@H](C)[C@@H]1O [ABAMECTIN]
Not Active: IC50 [1] | IC50 (Nitric oxide synthase 1) | IC50 (Melanocortin receptor 5) | IC50 [2] | IC50 [3] | IC50 [4] | Ki [4]

NCCCC(O)(P(=O)(O)O)P(=O)(O)O [ALENDRONIC ACID]
Not Active: IC50 [1] | IC50 (Nitric oxide synthase 1) | IC50 (Melanocortin receptor 5) | IC50 [2] | IC50 [3] | IC50 [4] | Ki [4]

Cc1nnc2n1-c1ccc(Cl)cc1C(c1ccccc1)=NC2 [ALPRAZOLAM]
Not Active: IC50 [1] | IC50 (Nitric oxide synthase 1) | IC50 (Melanocortin receptor 5) | IC50 [2] | IC50 [3] | IC50 [4] | Ki [4]

Cn1c(=O)c2[nH]cnc2n(C)c1=O.Cn1c(=O)c2[nH]cnc2n(C)c1=O.NCCN [AMINOPHYLLINE]
Not Active: IC50 [1] | IC50 (Nitric oxide synthase 1) | IC50 (Melanocortin receptor 5) | IC50 [2] | IC50 [3] | IC50 [4] | Ki [4]

CCC1(CCC(C)C)C(=O)NC(=O)NC1=O [AMOBARBITAL]
Not Active: IC50 [1] | IC50 (Nitric oxide synthase 1) | IC50 (Melanocortin receptor 5) | IC50 [2] | IC50 [3] | IC50 [4] | Ki [4]

CC1(C)S[C@@H]2[C@H](NC(=O)[C@H](N)c3ccccc3)C(=O)N2[C@H]1C(=O)O [AMPICILLIN]
Not Active: IC50 [1] | IC50 (Nitric oxide synthase 1) | IC50 (Melanocortin receptor 5) | IC50 [2] | IC50 [3] | IC50 [4] | Ki [4]

COc1ccc(C2C(=O)c3ccccc3C2=O)cc1 [ANISINDIONE]
Not Active: IC50 [1] | IC50 (Nitric oxide synthase 1) | IC50 (Melanocortin receptor 5) | IC50 [2] | IC50 [3] | IC50 [4] | Ki [4]

O=C1O[C@H]([C@@H](O)CO)C(O)=C1O [ASCORBIC ACID]
Not Active: IC50 [1] | IC50 (Nitric oxide synthase 1) | IC50 (Melanocortin receptor 5) | IC50 [2] | IC50 [3] | IC50 [4] | Ki [4]

CN1[C@@H]2CC[C@H]1C[C@@H](OC(=O)C(CO)c1ccccc1)C2 (some centres not stated) [ATROPINE]
Not Active: IC50 [1] | IC50 (Nitric oxide synthase 1) | IC50 (Melanocortin receptor 5) | IC50 [2] | IC50 [3] | IC50 [4] | Ki [4]

CC(C(=O)O)c1ccc2oc(-c3ccc(Cl)cc3)nc2c1 (configuration not stated) [BENOXAPROFEN]
Not Active: IC50 [1] | IC50 (Nitric oxide synthase 1) | IC50 (Melanocortin receptor 5) | IC50 [2] | IC50 [3] | IC50 [4] | Ki [4]

COc1ccc2cc3[n+](cc2c1OC)CCc1cc2c(cc1-3)OCO2.[Cl-] [BERBERINE CHLORIDE]
Not Active: IC50 [1] | IC50 (Nitric oxide synthase 1) | IC50 (Melanocortin receptor 5) | IC50 [2] | IC50 [3] | IC50 [4] | Ki [4]

O=C(O)CCNC(=O)c1ccccc1 [BETAMIPRON]
Not Active: IC50 [1] | IC50 (Nitric oxide synthase 1) | IC50 (Melanocortin receptor 5) | IC50 [2] | IC50 [3] | IC50 [4] | Ki [4]

CC(=O)Oc1ccc(C(c2ccc(OC(C)=O)cc2)c2ccccn2)cc1 [BISACODYL]
Not Active: IC50 [1] | IC50 (Nitric oxide synthase 1) | IC50 (Melanocortin receptor 5) | IC50 [2] | IC50 [3] | IC50 [4] | Ki [4]

Cc1cc2c(OCC(CNC(C)(C)C)OC(=O)c3ccccc3)cccc2[nH]1 (configuration not stated) [BOPINDOLOL]
Not Active: IC50 [1] | IC50 (Nitric oxide synthase 1) | IC50 (Melanocortin receptor 5) | IC50 [2] | IC50 [3] | IC50 [4] | Ki [4]

Brc1c(NC2=NCCN2)ccc2nccnc12 [BRIMONIDINE]
Not Active: IC50 [1] | IC50 (Nitric oxide synthase 1) | IC50 (Melanocortin receptor 5) | IC50 [2] | IC50 [3] | IC50 [4] | Ki [4]

CN(C)[C@@H]1C(O)=C(C(N)=O)C(=O)[C@@]2(O)C(O)=C3C(=O)c4c(O)ccc(Cl)c4[C@@](C)(O)[C@H]3C[C@@H]12 [CHLORTETRACYCLINE]
Not Active: IC50 [1] | IC50 (Nitric oxide synthase 1) | IC50 (Melanocortin receptor 5) | IC50 [2] | IC50 [3] | IC50 [4] | Ki [4]

CN/C(=N\CCSCc1nc[nH]c1C)NC#N [CIMETIDINE]
Not Active: IC50 [1] | IC50 (Nitric oxide synthase 1) | IC50 (Melanocortin receptor 5) | IC50 [2] | IC50 [3] | IC50 [4] | Ki [4]

COc1cc(N)c(Cl)cc1C(=O)NC1CCN(CCCOc2ccc(F)cc2)CC1OC (configuration not stated) [CISAPRIDE]
Not Active: IC50 [1] | IC50 (Nitric oxide synthase 1) | IC50 (Melanocortin receptor 5) | IC50 [2] | IC50 [3] | IC50 [4] | Ki [4]

CCC(=O)O[C@]1(C(=O)CCl)[C@@H](C)C[C@H]2[C@@H]3CCC4=CC(=O)C=C[C@]4(C)[C@@]3(F)[C@@H](O)C[C@@]21C [CLOBETASOL PROPIONATE]
Not Active: IC50 [1] | IC50 (Nitric oxide synthase 1) | IC50 (Melanocortin receptor 5) | IC50 [2] | IC50 [3] | IC50 [4] | Ki [4]

O=C1CN=C(c2ccccc2Cl)c2cc([N+](=O)[O-])ccc2N1 [CLONAZEPAM]
Not Active: IC50 [1] | IC50 (Nitric oxide synthase 1) | IC50 (Melanocortin receptor 5) | IC50 [2] | IC50 [3] | IC50 [4] | Ki [4]

Nc1ccn([C@@H]2O[C@H](CO)[C@@H](O)[C@@H]2O)c(=O)n1 [CYTARABINE]
Not Active: IC50 [1] | IC50 (Nitric oxide synthase 1) | IC50 (Melanocortin receptor 5) | IC50 [2] | IC50 [3] | IC50 [4] | Ki [4]
